Experimental findings from patent publication US10961231B2, “NTCP inhibitors” (National Institute of Biological Sciences, Beijing, priority 2018, dated 2021) are described below.

pIC50: −log10 of the molar value.

One experiment concerns the target T1, NTCP (Homo sapiens, UniProt Q14973).
T1 sequence (Q14973 1-349): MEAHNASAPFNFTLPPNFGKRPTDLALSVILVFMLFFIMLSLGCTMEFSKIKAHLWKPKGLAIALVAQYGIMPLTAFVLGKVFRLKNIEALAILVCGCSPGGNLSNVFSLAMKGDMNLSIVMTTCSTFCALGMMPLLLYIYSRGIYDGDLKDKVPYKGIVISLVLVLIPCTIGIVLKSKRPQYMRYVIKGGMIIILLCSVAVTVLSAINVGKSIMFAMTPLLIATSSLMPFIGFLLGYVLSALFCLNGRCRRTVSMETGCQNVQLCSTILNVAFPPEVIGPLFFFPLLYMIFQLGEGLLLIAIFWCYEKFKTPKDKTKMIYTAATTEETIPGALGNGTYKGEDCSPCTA
Put plainly: [3H]-TCA uptake assay (NTCP inhibition). In kind it is cell-based. Particulars: IC50, given as a range, marked * (asterisk not explained). The essentials:
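PTH and HepG2-NTCP cells kept 24 h in PMM to induce NTCP, then exposed 2 h to test compounds or DMSO. Uptake of 1 μM [3H]-taurocholate in Na+ Ringer's buffer (145 mM Na) ran 15 min at 37° C. Cells washed, lysed in 1% Triton X-100, and radioactivity counted by liquid scintillation.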
As usually defined, the pIC50 is the negative decadic logarithm of the IC50, by convention in mol/L. In turn, `CCC1NC(=O)C(C2OC(SCc3ccccc3)CC2C)N(C)C(=O)C(C(C)C)N(C)C(=O)C(CC(C)C)N(C)C(=O)C(CC(C)C)N(C)C(=O)C(C)NC(=O)C(C)NC(=O)C(CC(C)C)N(C)C(=O)C(C(C)C)NC(=O)C(CC(C)C)N(C)C(=O)CN(C)C1=O` (stereo not shown) [Compound 74A-s] gave a pIC50 of 4.00 to 6.00. Still for that read-out and setting: then `CCC1NC(=O)C(C2OC(Oc3ccc(CN4CCN(C)CC4)cc3)CC2C)N(C)C(=O)C(C(C)C)N(C)C(=O)C(CC(C)C)N(C)C(=O)C(CC(C)C)N(C)C(=O)C(C)NC(=O)C(C)NC(=O)C(CC(C)C)N(C)C(=O)C(C(C)C)NC(=O)C(CC(C)C)N(C)C(=O)CN(C)C1=O` (stereo not shown) [Compound 7A-o], with 4.00 to 6.00; and `CCC1NC(=O)C(C2OC(SCc3ccc4c(c3)OCO4)CC2C)N(C)C(=O)C(C(C)C)N(C)C(=O)C(CC(C)C)N(C)C(=O)C(CC(C)C)N(C)C(=O)C(C)NC(=O)C(C)NC(=O)C(CC(C)C)N(C)C(=O)C(C(C)C)NC(=O)C(CC(C)C)N(C)C(=O)CN(C)C1=O` (stereo not shown) [Compound 100A-s], with 4.00 to 6.00. The same measure, in the same setting: then `CCCN(C)c1cccc(OC2CC(C)C(C3C(=O)NC(CC)C(=O)N(C)CC(=O)N(C)C(CC(C)C)C(=O)NC(C(C)C)C(=O)N(C)C(CC(C)C)C(=O)NC(C)C(=O)NC(C)C(=O)N(C)C(CC(C)C)C(=O)N(C)C(CC(C)C)C(=O)N(C)C(C(C)C)C(=O)N3C)O2)c1` (stereo not shown) [Compound 50A-o], with 4.00 to 6.00; and `CCC1NC(=O)C(C2OC(Oc3cccc(NCc4ccccc4)c3)CC2C)N(C)C(=O)C(C(C)C)N(C)C(=O)C(CC(C)C)N(C)C(=O)C(CC(C)C)N(C)C(=O)C(C)NC(=O)C(C)NC(=O)C(CC(C)C)N(C)C(=O)C(C(C)C)NC(=O)C(CC(C)C)N(C)C(=O)CN(C)C1=O` (stereo not shown) [Compound 48A-o], with 4.00 to 6.00; and `CCC1NC(=O)C(C2OC(Oc3cccc(O)c3)CC2C)N(C)C(=O)C(C(C)C)N(C)C(=O)C(CC(C)C)N(C)C(=O)C(CC(C)C)N(C)C(=O)C(C)NC(=O)C(C)NC(=O)C(CC(C)C)N(C)C(=O)C(C(C)C)NC(=O)C(CC(C)C)N(C)C(=O)CN(C)C1=O` (stereo not shown) [Compound 25A-o], with 4.00 to 6.00. Same read-out and setting: then `CCC1NC(=O)C(C2OC(Oc3cccc(OCC4CC4)c3)CC2C)N(C)C(=O)C(C(C)C)N(C)C(=O)C(CC(C)C)N(C)C(=O)C(CC(C)C)N(C)C(=O)C(C)NC(=O)C(C)NC(=O)C(CC(C)C)N(C)C(=O)C(C(C)C)NC(=O)C(CC(C)C)N(C)C(=O)CN(C)C1=O` (stereo not shown) [Compound 32A-o], with 4.00 to 6.00; and `CCC1NC(=O)C(C2OC(Oc3cccc(OCc4cccc(F)c4)c3)CC2C)N(C)C(=O)C(C(C)C)N(C)C(=O)C(CC(C)C)N(C)C(=O)C(CC(C)C)N(C)C(=O)C(C)NC(=O)C(C)NC(=O)C(CC(C)C)N(C)C(=O)C(C(C)C)NC(=O)C(CC(C)C)N(C)C(=O)CN(C)C1=O` (stereo not shown) [Compound 20A-o], with 4.00 to 6.00.

Still in this experiment, the particulars now being: IC50, given as a range; assay not given.
`CCC1NC(=O)C(C2OC(OCc3ccc(OCCN(C)C)cc3)CC2C)N(C)C(=O)C(C(C)C)N(C)C(=O)C(CC(C)C)N(C)C(=O)C(CC(C)C)N(C)C(=O)C(C)NC(=O)C(C)NC(=O)C(CC(C)C)N(C)C(=O)C(C(C)C)NC(=O)C(CC(C)C)N(C)C(=O)CN(C)C1=O` [Compound 87A, [2-((2R,3R)-5-(4-(2-(dimethylamino)ethoxy)benzyloxy)-3-methyltetrahydrofuran-2-yl)-2-(methylamino)acetic acid]^1-cyclosporin A]: the pIC50 is 5.00 to 6.00. Still for that read-out and setting: then `CCC1NC(=O)C(C2OC(OCc3ccc(N4CCOCC4)cc3)CC2C)N(C)C(=O)C(C(C)C)N(C)C(=O)C(CC(C)C)N(C)C(=O)C(CC(C)C)N(C)C(=O)C(C)NC(=O)C(C)NC(=O)C(CC(C)C)N(C)C(=O)C(C(C)C)NC(=O)C(CC(C)C)N(C)C(=O)CN(C)C1=O` [Compound 99A, [2-((2R,3R)-3-methyl-5-(4-morpholinobenzyloxy)tetrahydrofuran-2-yl)-2-(methylamino)acetic acid]^1-cyclosporin A], with 5.00 to 6.00.

Staying with this experiment, now noted: given as a range, marked * (asterisk not explained).
Compound `CCC1NC(=O)C(C2OC(Sc3cc(OC)cc(OCC4CCOCC4)c3)CC2C)N(C)C(=O)C(C(C)C)N(C)C(=O)C(CC(C)C)N(C)C(=O)C(CC(C)C)N(C)C(=O)C(C)NC(=O)C(C)NC(=O)C(CC(C)C)N(C)C(=O)C(C(C)C)NC(=O)C(CC(C)C)N(C)C(=O)CN(C)C1=O` (stereo not shown) [Compound 66] showed a pIC50 of 4.00 to 6.00.

`CCC1NC(=O)C(C2OC(Sc3cc(OCCOC)cc(OCc4ccccc4)c3)CC2C)N(C)C(=O)C(C(C)C)N(C)C(=O)C(CC(C)C)N(C)C(=O)C(CC(C)C)N(C)C(=O)C(C)NC(=O)C(C)NC(=O)C(CC(C)C)N(C)C(=O)C(C(C)C)NC(=O)C(CC(C)C)N(C)C(=O)CN(C)C1=O` (stereo not shown) [Compound 11]: the pIC50 was 4.00 to 6.00. In turn, `CCC1NC(=O)C(C2OC(Sc3cc(OCCOC)cc(OCCOC)c3)CC2C)N(C)C(=O)C(C(C)C)N(C)C(=O)C(CC(C)C)N(C)C(=O)C(CC(C)C)N(C)C(=O)C(C)NC(=O)C(C)NC(=O)C(CC(C)C)N(C)C(=O)C(C(C)C)NC(=O)C(CC(C)C)N(C)C(=O)CN(C)C1=O` (stereo not shown) [Compound 73] had a pIC50 of 4.00 to 6.00.

For the compound `CCC1NC(=O)C(C2OC(Oc3cccc(OCc4ccc(F)c(Cl)c4)c3)CC2C)N(C)C(=O)C(C(C)C)N(C)C(=O)C(CC(C)C)N(C)C(=O)C(CC(C)C)N(C)C(=O)C(C)NC(=O)C(C)NC(=O)C(CC(C)C)N(C)C(=O)C(C(C)C)NC(=O)C(CC(C)C)N(C)C(=O)CN(C)C1=O` (stereo not shown) [Compound 22A-o], the pIC50 is 4.00 to 6.00.

The experiment is the same for the next values; noted with them: given as a range; assay not given.
By IC50 is commonly meant the concentration that inhibits the measured activity by half. The low end stands for higher potency, the high end for lower potency. In turn, `CCC1NC(=O)C(C2OC(OC(c3ccccc3)c3ccccc3)CC2C)N(C)C(=O)C(C(C)C)N(C)C(=O)C(CC(C)C)N(C)C(=O)C(CC(C)C)N(C)C(=O)C(C)NC(=O)C(C)NC(=O)C(CC(C)C)N(C)C(=O)C(C(C)C)NC(=O)C(CC(C)C)N(C)C(=O)CN(C)C1=O` [Compound 80A, [2-((2R,3R)-3-methyl-5-(benzhydryloxy)tetrahydrofuran-2-yl)-2-(methylamino)acetic acid]^1-cyclosporin A] yielded an IC50 of 1 to 1000 nM. Still for that read-out and setting: as for `CCC1NC(=O)C(C2OC(OCc3ccc(Cl)cc3Cl)CC2C)N(C)C(=O)C(C(C)C)N(C)C(=O)C(CC(C)C)N(C)C(=O)C(CC(C)C)N(C)C(=O)C(C)NC(=O)C(C)NC(=O)C(CC(C)C)N(C)C(=O)C(C(C)C)NC(=O)C(CC(C)C)N(C)C(=O)CN(C)C1=O` (single isomer, unassigned) [Compound 89B], the figure is 1 to 1000 nM; as for `CCC1NC(=O)C(C2OC(OCc3c(Cl)cccc3Cl)CC2C)N(C)C(=O)C(C(C)C)N(C)C(=O)C(CC(C)C)N(C)C(=O)C(CC(C)C)N(C)C(=O)C(C)NC(=O)C(C)NC(=O)C(CC(C)C)N(C)C(=O)C(C(C)C)NC(=O)C(CC(C)C)N(C)C(=O)CN(C)C1=O` (single isomer, unassigned) [Compound 90A], 1 to 1000 nM. On the same count and under the same terms, then `CCC1NC(=O)C(C2OC(OCc3cc(F)c(Cl)cc3Cl)CC2C)N(C)C(=O)C(C(C)C)N(C)C(=O)C(CC(C)C)N(C)C(=O)C(CC(C)C)N(C)C(=O)C(C)NC(=O)C(C)NC(=O)C(CC(C)C)N(C)C(=O)C(C(C)C)NC(=O)C(CC(C)C)N(C)C(=O)CN(C)C1=O` (single isomer, unassigned) [Compound 101A], with 1 to 1000 nM.

As to `CCC1NC(=O)C(C2OC(Sc3cccc(OCc4cccc(F)c4)c3)CC2C)N(C)C(=O)C(C(C)C)N(C)C(=O)C(CC(C)C)N(C)C(=O)C(CC(C)C)N(C)C(=O)C(C)NC(=O)C(C)NC(=O)C(CC(C)C)N(C)C(=O)C(C(C)C)NC(=O)C(CC(C)C)N(C)C(=O)CN(C)C1=O` [Compound 20A, [2-((2R,3R)-5-(3-(3-fluorobenzyloxy)phenylthio)-3-methyltetrahydrofuran-2-yl)-2-(methylamino)acetic acid]^1-cyclosporin A], the IC50 was 1 to 1000 nM.

In turn, `CCC1NC(=O)C(C2OC(OCc3ccc4c(c3)OCO4)CC2C)N(C)C(=O)C(C(C)C)N(C)C(=O)C(CC(C)C)N(C)C(=O)C(CC(C)C)N(C)C(=O)C(C)NC(=O)C(C)NC(=O)C(CC(C)C)N(C)C(=O)C(C(C)C)NC(=O)C(CC(C)C)N(C)C(=O)CN(C)C1=O` [Compound 100A, [2-((2R,3R)-5-(benzo[d][1,3]dioxol-5-ylmethoxy)-3-methyltetrahydrofuran-2-yl)-2-(methylamino)acetic acid]^1-cyclosporin A] showed an IC50 of 1 to 1000 nM. On to `CCC1NC(=O)C(C2OC(Sc3ccc(Cl)c(OC)c3)CC2C)N(C)C(=O)C(C(C)C)N(C)C(=O)C(CC(C)C)N(C)C(=O)C(CC(C)C)N(C)C(=O)C(C)NC(=O)C(C)NC(=O)C(CC(C)C)N(C)C(=O)C(C(C)C)NC(=O)C(CC(C)C)N(C)C(=O)CN(C)C1=O` [Compound 40A, [2-((2R,3R)-5-(4-chloro-3-methoxyphenylthio)-3-methyltetrahydrofuran-2-yl)-2-(methylamino)acetic acid]^1-cyclosporin A], for which the IC50 lay within 1 to 1000 nM.

With `CCC1NC(=O)C(C2OC(Sc3ccc(Cl)c(OCCO)c3)CC2C)N(C)C(=O)C(C(C)C)N(C)C(=O)C(CC(C)C)N(C)C(=O)C(CC(C)C)N(C)C(=O)C(C)NC(=O)C(C)NC(=O)C(CC(C)C)N(C)C(=O)C(C(C)C)NC(=O)C(CC(C)C)N(C)C(=O)CN(C)C1=O` [Compound 46A, [2-((2R,3R)-5-(4-chloro-3-(2-hydroxyethoxy)phenylthio)-3-methyltetrahydrofuran-2-yl)-2-(methylamino)acetic acid]^1-cyclosporin A], the IC50 lay in the range of 1 to 1000 nM.
